Like-named read-outs stand apart in the source and are kept apart here.
Key:
[1] = target: T1, PARP in C41 cells (Homo sapiens, UniProt P09874); assay: Cellular PARP assay (PAR formation after H2O2 DNA damage, anti-PAR immunofluorescence); format: cell-based; conditions: compound 30 minutes, then 1 mM H2O2 for 10 minutes, FITC signal normalized with DAPI, read-out: Cell, EC50
T1 construct: endogenous in cells; host or cells: C41 cells
Method: C41 cells were treated with a compound of this invention for 30 minutes in 96 well plate. PARP was then activated by damaging DNA with 1 mM H2O2 for 10 minutes. The cells were then washed with ice-cold PBS once and fixed with pre-chilled methanol:acetone (7:3) at −20° C. for 10 minutes. After air-drying, the plates were rehydrated with PBS and blocked 5% non-fat dry milk in PBS-TWEEN20® (Sigma, St. Louis, Mo.) (0.05%) (blocking solution) for 30 minutes at room temperature. The cells were incubated with anti-PAR antibody 10H (1:50) in Blocking solution at 37° C. for 60 minutes followed by washing with PBS-TWEEN20® 5 times, and incubation with goat anti-mouse fluorescein 5(6)-isothiocyanate-coupled antibody (1:50) and 1 μg/ml 4′,6-diamidino-2-phenylindole (DAPI) in blocking solution at 37° C. for 60 minutes. […] The PARP activity (FITC signal) was normalized with cell numbers (DAPI).

[2] = target: T2, PARP-1 (Homo sapiens, UniProt P09874); assay: PARP1 assay (inhibition of PARP, [3H]-NAD+ / biotinylated histone H1, FlashPlate scintillation); format: biochemical
T2 construct: purchased Trevigen (Gaithersburg, Md.); host or cells: E. coli
Method: Nicotinamide[2,5′,8-3H]adenine dinucleotide and strepavidin SPA beads were purchased from Amersham Biosiences (Buckinghamshire, U.K.). […] NAD^+, histone, aminobenzamide, 3-amino benzamide and Calf Thymus DNA (dcDNA) were purchased from Sigma (St. Louis, Mo.). […] Biotinylated histone H1 was prepared by treating the protein with Sulfo-NHS-LC-Biotin from Pierce (Rockford, Ill.). The biotinylation reaction was conducted by slowly and intermittently adding 3 equivalents of 10 mM Sulfo-NHS-LC-Biotin to 100 μM Histone H1 in phosphate-buffered saline, pH 7.5, at 4° C. with gentle vortexing over 1 minute followed by subsequent 4° C. incubation for 1 hour. Streptavidin coated (FLASHPLATE PLUS®) microplates were purchased from Perkin Elmer (Waltham, Mass.).
PARP1 assay was conducted in PARP assay buffer containing 50 mM Tris pH 8.0, 1 mM DTT, 4 mM MgCl2. […] Auto reactions utilizing SPA bead-based detection were carried out in 100 μL volumes in white 96 well plates. Reactions were initiated by adding 50 μl of 2× NAD^+ substrate mixture to 50 μL of 2× enzyme mixture containing PARP and DNA. […] 170 μL of the stopped reaction mixtures were transferred to streptavidin FLASHPLATE PLUS®, incubated for 1 hour, and counted using a TOPCOUNT® microplate scintillation counter from Perkin Elmer (Waltham, Mass.).

[3] = recombinant human PARP, 1 nM enzyme, 1.5 μM [3H]-NAD+, inhibition curves at various substrate concentrations, read-out: PARP-1 (Ki)

T2 sequence (P09874 whole entry): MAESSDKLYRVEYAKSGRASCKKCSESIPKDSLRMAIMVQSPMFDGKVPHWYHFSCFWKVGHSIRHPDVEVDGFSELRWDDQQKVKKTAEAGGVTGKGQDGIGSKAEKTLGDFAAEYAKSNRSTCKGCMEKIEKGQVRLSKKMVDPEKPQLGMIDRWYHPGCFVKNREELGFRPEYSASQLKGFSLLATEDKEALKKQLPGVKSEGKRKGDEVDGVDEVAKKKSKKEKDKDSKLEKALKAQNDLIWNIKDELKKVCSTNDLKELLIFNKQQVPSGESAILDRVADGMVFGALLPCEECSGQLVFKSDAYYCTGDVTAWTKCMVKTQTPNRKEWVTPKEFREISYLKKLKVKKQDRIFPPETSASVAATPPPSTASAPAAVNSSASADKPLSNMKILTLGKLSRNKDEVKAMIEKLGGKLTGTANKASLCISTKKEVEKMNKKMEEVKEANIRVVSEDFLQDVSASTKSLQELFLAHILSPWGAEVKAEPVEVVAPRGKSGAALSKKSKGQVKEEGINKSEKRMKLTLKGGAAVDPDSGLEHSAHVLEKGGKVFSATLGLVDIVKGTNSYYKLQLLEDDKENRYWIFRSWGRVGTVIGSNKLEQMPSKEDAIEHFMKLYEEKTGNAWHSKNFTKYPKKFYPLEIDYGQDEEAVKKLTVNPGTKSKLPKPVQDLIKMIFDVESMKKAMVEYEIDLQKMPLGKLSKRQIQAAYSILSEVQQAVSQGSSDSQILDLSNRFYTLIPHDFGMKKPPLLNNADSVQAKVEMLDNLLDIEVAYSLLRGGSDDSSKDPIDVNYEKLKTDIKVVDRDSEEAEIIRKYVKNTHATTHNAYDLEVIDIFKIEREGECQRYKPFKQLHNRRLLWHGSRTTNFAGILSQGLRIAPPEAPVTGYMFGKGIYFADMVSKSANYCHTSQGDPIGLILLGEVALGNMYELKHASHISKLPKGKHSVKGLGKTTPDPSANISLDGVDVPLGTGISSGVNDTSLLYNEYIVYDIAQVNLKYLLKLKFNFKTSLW
T1 sequence (P09874 whole entry): as above

Row | Structure (SMILES) | EC50 [1] | Ki [2] | Ki [2, 3]
1 | O=c1[nH]c2cc(CN3CCCC3)ccc2n2cccc12 [Example 7, 7-(pyrrolidin-1-ylmethyl)pyrrolo[1,2-a]quinoxalin-4(5H)-one] | 5.4 nM | 6 nM | –
2 | CN1CCN(CCCNC(=O)c2ccc3c(c2)[nH]c(=O)c2cccn23)CC1 [Example 66, N-[3-(4-methylpiperazin-1-yl)propyl]-4-oxo4,5-dihydropyrrolo[1,2-a]quinoxaline-7-carboxamide] | 32 nM | – | 23 nM
3 | O=C(c1ccc2c(c1)[nH]c(=O)c1cccn12)N1CCCCC1 [Example 85, 7-(piperidin-1-ylcarbonyl)pyrrolo[1,2-a]quinoxalin-4(5H)-one] | 23 nM | – | 16 nM
4 | CN(C)Cc1ccc2c(c1)NC(=O)C1CCCN21 (stereo not shown) [Example 44, 7-[(dimethylamino)methyl]-1,2,3,3a-tetrahydropyrrolo[1,2-a]quinoxalin-4(5H)-one] | 143 nM | 60 nM | –
5 | NC1CCN(Cc2ccc3c(c2)[nH]c(=O)c2cccn23)CC1 [Example 86, 7-[(4-aminopiperidin-1-yl)methyl]pyrrolo[1,2-a]quinoxalin-4(5H)-one] | 204 nM | – | 35 nM
6 | O=c1[nH]c2ccc(CNCCc3ccccc3)cc2n2cccc12 [Example 14, 8-(((2-phenylethyl)amino)methyl)pyrrolo[1,2-a]quinoxalin-4(5H)-one] | – | – | 98 nM
7 | O=C(Nc1cccc(S(=O)(=O)N2CCCCC2)c1)c1ccc2c(c1)[nH]c(=O)c1cccn12 [Example 75, 4-oxo-N-[3-(piperidin-1-ylsulfonyl)phenyl]4,5-dihydropyrrolo[1,2-a]quinoxaline-7-carboxamide] | – | – | 1640 nM
8 | CN(C)C(=O)c1ccc2c(c1)[nH]c(=O)c1cccn12 [Example 79, N,N-dimethyl-4-oxo-4,5-dihydropyrrolo[1,2-a]quinoxaline-7-carboxamide] | – | – | 615 nM
9 | O=C(CNCc1ccc2c(c1)[nH]c(=O)c1cccn12)N1CCCC1 [Example 76, 7-((2-oxo-2-(pyrrolidin-1-yl)ethylamino)methyl)pyrrolo[1,2-a]quinoxalin-4(5H)-one] | – | – | 149 nM
10 | O=c1[nH]c2ccc(CNC3CC3)cc2n2cccc12 [Example 12, 8-((cyclopropylamino)methyl)pyrrolo[1,2-a]quinoxalin-4(5H)-one] | 13 nM | 32 nM | –
11 | O=C1Nc2cc(CN3CCCCC3)ccc2N2CCCCC12 (stereo not shown) [Example 37, 3-(piperidin-1-ylmethyl)-7,8,9,10-tetrahydro-5H-pyrido[1,2-a]quinoxalin-6(6aH)-one] | – | – | 98 nM
12 | O=C1NCc2cc(CNCC3CCCCC3)ccc2-n2cccc21 [Example 31, 8-(((cyclohexylmethyl)amino)methyl)-5,6-dihydro-4H-pyrrolo[1,2-a][1,4]benzodiazepin-4-one] | – | – | 1490 nM
13 | CC(C)N(C)Cc1ccc2c(c1)NC(=O)C1CCCN21 (stereo not shown) [Example 50, 7-{[isopropyl(methyl)amino]methyl}-1,2,3,3a-tetrahydropyrrolo[1,2-a]quinoxalin-4(5H)-one] | – | – | 1960 nM
14 | O=c1[nH]c2ccc(CNC3CCCCC3)cc2n2cccc12 [Example 8, 8-((cyclohexylamino)methyl)pyrrolo[1,2-a]quinoxalin-4(5H)-one] | – | – | 99 nM
15 | O=c1[nH]c2cc(CNCC3CCCCC3)ccc2n2ccnc12 [Example 24, 7-(((cyclohexylmethyl)amino)methyl)imidazo[1,2-a]quinoxalin-4(5H)-one] | – | – | 5180 nM
16 | O=C(NCC(=O)N1CCCC1)c1ccc2c(c1)[nH]c(=O)c1cccn12 [Example 73, 4-oxo-N-(2-oxo-2-(pyrrolidin-1-yl)ethyl)-4,5-dihydropyrrolo[1,2-a]quinoxaline-7-carboxamide] | – | – | 874 nM
17 | CC(C)NCc1ccc2c(c1)NC(=O)C1CCCCN21 (stereo not shown) [Example 38, 3-[(isopropylamino)methyl]-7,8,9,10-tetrahydro-5H-pyrido[1,2-a]quinoxalin-6(6aH)-one] | – | – | 340 nM
18 | CCN1CCCC(NC(=O)c2ccc3c(c2)[nH]c(=O)c2cccn23)C1 (stereo not shown) [Example 80, N-(1-ethylpiperidin-3-yl)4-oxo-4,5-dihydropyrrolo[1,2-a]quinoxaline-7carboxamide] | – | – | 113 nM
19 | CC(C)NCc1ccc2[nH]c(=O)c3cccn3c2c1 [Example 13, 8-((isopropylamino)methyl)pyrrolo[1,2-a]quinoxalin-4(5H)-one] | 37 nM | – | 44 nM
20 | CN(C)CCNCc1ccc2c(c1)[nH]c(=O)c1cccn12 [Example 65, 7-({[2-(dimethylamino)ethyl]amino}methyl)pyrrolo[1,2-a]quinoxalin-4(5H)-one] | – | – | 427 nM
21 | O=c1[nH]c2cc(CN3CCCCC3)ccc2n2ccnc12 [Example 22, 7-(piperidin-1-ylmethyl)imidazo[1,2-a]quinoxalin-4(5H)-one] | – | – | 330 nM

Row | Structure (SMILES) | EC50 [1] | Ki [2] | Ki [2, 3]
22 | O=c1[nH]c2cc(CNCC3CCCCC3)ccc2n2cccc12 [Example 2, 7-(((cyclohexylmethyl)amino)methyl)pyrrolo[1,2-a]quinoxalin-4(5H)-one] | – | – | 91 nM
23 | O=c1[nH]c2cc(CN3CCCC3)ccc2n2ccnc12 [Example 21, 7-(pyrrolidin-1-ylmethyl)imidazo[1,2-a]quinoxalin-4(5H)-one] | – | – | 280 nM
24 | O=C(NCCCN1CCOCC1)c1ccc2c(c1)[nH]c(=O)c1cccn12 [Example 63, N-(3-morpholin-4-ylpropyl)-4-oxo-4,5-dihydropyrrolo[1,2-a]quinoxaline-7-carboxamide] | – | – | 211 nM
25 | O=C1NCc2cc(CNC3CCCCC3)ccc2-n2cccc21 [Example 58, 8-[(cyclohexylamino)methyl]-5,6-dihydro-4H-pyrrolo[1,2-a][1,4]benzodiazepin4-one] | – | – | 1440 nM
26 | COC(=O)CNCc1ccc2c(c1)[nH]c(=O)c1cccn12 [Example 59, Methyl N-[(4-oxo4,5-dihydropyrrolo[1,2-a]quinoxalin-7-yl)methyl]glycinate] | – | – | 534 nM
27 | O=C(c1ccc2c(c1)[nH]c(=O)c1cccn12)N1CCCNCC1 [Example 88, 7-(1,4-diazepan-1-ylcarbonyl)pyrrolo[1,2-a]quinoxalin-4(5H)-one] | – | – | 8690 nM
28 | O=C(O)CNCc1ccc2c(c1)[nH]c(=O)c1cccn12 [Example 60, N-[(4-oxo-4,5-dihydropyrrolo[1,2-a]quinoxalin-7-yl)methyl]glycine] | – | – | 318 nM
29 | O=C1Nc2cc(CN3CCCCC3)ccc2N2CCCC12 (stereo not shown) [Example 45, 7-(piperidin-1-ylmethyl)-1,2,3,3a-tetrahydropyrrolo[1,2-a]quinoxalin-4(5H)-one] | – | – | 146 nM
30 | O=c1[nH]c2ccc(CNC3CCC3)cc2n2cccc12 [Example 16, 8-((cyclobutylamino)methyl)pyrrolo[1,2-a]quinoxalin-4(5H)-one] | – | – | 51 nM
31 | CS(=O)(=O)N(Cc1ccc2c(c1)[nH]c(=O)c1cccn12)C1CC1 [Example 56, N-cyclopropyl-N-[(4-oxo-4,5-dihydropyrrolo[1,2-a]quinoxalin-7-yl)methyl]methanesulfonamide] | – | – | 909 nM
32 | O=c1[nH]c2cc(CNCCN3CCCCC3)ccc2n2cccc12 [Example 71, 7-{[(2-piperidin-1-ylethyl)amino]methyl}pyrrolo[1,2-a]quinoxalin-4(5H)-one] | – | – | 182 nM
33 | O=c1[nH]c2cc(CNC3CCCC3)ccc2n2cccc12 [Example 4, 7-((cyclopentylamino)methyl)pyrrolo[1,2-a]quinoxalin-4(5H)-one] | – | – | 179 nM
34 | O=c1[nH]c2ccc(CN3CCOCC3)cc2n2cccc12 [Example 17, 8-(morpholin-4-ylmethyl)pyrrolo[1,2-a]quinoxalin-4(5H)-one] | – | – | 130 nM
35 | O=C(NCC(=O)N1CCOCC1)c1ccc2c(c1)[nH]c(=O)c1cccn12 [Example 64, N-(2-morpholino-2-oxoethyl)-4-oxo-4,5-dihydropyrrolo[1,2-a]quinoxaline-7-carboxamide] | – | – | 369 nM
36 | O=c1[nH]c2cc(CNC3CCCCC3)ccc2n2cccc12 [Example 1, 7-((cyclohexylamino)methyl)pyrrolo[1,2-a]quinoxalin-4(5H)-one] | – | – | 474 nM
37 | CCN(C)Cc1ccc2c(c1)NC(=O)C1CCCCN21 (stereo not shown) [Example 39, 3-{[ethyl(methyl)amino]methyl}-7,8,9,10-tetrahydro-5H-pyrido[1,2-a]quinoxalin-6(6aH)-one] | – | – | 71 nM
38 | CN1CCN(Cc2ccc3c(c2)NC(=O)C2CCCN32)CC1 (stereo not shown) [Example 48, 7-[(4-methylpiperazin-1-yl)methyl]-1,2,3,3a-tetrahydropyrrolo[1,2-a]quinoxalin-4(5H)-one] | – | – | > 9500 nM
39 | O=C1NCc2cc(CN3CCCCC3)ccc2-n2cccc21 [Example 57, 8-(piperidin-1-ylmethyl)-5,6-dihydro-4H-pyrrolo[1,2-a][1,4]benzodiazepin4-one] | – | – | 1140 nM
40 | O=c1[nH]c2cc(CNC3CCC3)ccc2n2cccc12 [Example 3, 7-((cyclobutylamino)methyl)pyrrolo[1,2-a]quinoxalin-4(5H)-one] | – | – | 83 nM
41 | O=c1[nH]c2ccc(CNCC3CCCCC3)cc2n2cccc12 [Example 9, 8-(((cyclohexylmethyl)amino)methyl)pyrrolo[1,2-a]quinoxalin-4(5H)-one] | – | – | 206 nM
42 | O=C(NCCCN1CCCCC1)c1ccc2c(c1)[nH]c(=O)c1cccn12 [Example 70, 4-oxo-N-(3-piperidin-1-ylpropyl)-4,5-dihydropyrrolo[1,2-a]quinoxaline-7-carboxamide] | – | – | 139 nM

— US7790721B2, “Pyrroloquinoxalinone inhibitors of poly(ADP-ribose)polymerase” (Abbott Laboratories, priority 2006, dated 2010)
